In series [1] the target is T1, kappa opioid receptor (Homo sapiens, UniProt P41145). Kind of series: PathHunter DiscoverX β-arrestin2 recruitment (enzyme fragment complementation) assay. It counts as cell-based. Particulars: for EC50: 3 parameter nonlinear regression, nc = did not converge, read-out: β-arrestin2 EC50; for β-arrestin2 Emax (% U60): relative to U69,593 = 100% Emax, ~ did not plateau at 100%. Background: Recruitment of arrestin is a read-out of receptor activation apart from second messengers.
Target sequence in this assay (P41145 whole entry, the tested form may be a part): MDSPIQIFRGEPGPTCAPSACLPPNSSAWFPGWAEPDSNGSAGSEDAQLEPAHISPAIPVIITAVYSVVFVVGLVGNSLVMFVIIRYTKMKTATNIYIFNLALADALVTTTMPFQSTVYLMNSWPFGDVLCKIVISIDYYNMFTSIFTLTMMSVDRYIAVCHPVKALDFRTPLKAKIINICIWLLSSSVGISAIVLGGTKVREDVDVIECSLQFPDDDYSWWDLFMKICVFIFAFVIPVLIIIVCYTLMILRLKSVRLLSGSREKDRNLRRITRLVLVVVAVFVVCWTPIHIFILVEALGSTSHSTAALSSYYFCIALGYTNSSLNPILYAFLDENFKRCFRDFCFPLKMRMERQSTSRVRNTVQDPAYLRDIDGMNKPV
Target sequence in this assay (P32121 whole entry partner, the tested form may be a part): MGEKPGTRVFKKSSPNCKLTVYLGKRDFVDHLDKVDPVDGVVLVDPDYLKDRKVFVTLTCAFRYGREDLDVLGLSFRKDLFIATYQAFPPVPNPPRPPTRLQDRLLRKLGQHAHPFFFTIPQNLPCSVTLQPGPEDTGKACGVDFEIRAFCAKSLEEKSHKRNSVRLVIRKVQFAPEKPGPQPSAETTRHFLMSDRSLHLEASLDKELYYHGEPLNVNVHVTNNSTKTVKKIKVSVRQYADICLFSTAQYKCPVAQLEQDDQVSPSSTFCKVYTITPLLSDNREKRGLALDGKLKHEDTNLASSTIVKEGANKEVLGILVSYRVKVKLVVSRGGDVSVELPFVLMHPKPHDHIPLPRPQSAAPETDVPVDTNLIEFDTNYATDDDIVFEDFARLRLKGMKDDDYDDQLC

Series [2] has as its target T1, kappa opioid receptor. Kind of series: Bias analysis by operational model, G protein vs βarrestin2, U69,593 as reference agonist. The following applies: U69,593 reference agonist; global parameter fitting.
Target sequence in this assay (P41145 whole entry, the tested form may be a part): as the sequence (P41145 whole entry, the tested form may be a part) above
In series [3] the target is T1, kappa opioid receptor. Kind of series: GTPγS binding assay (G-protein activation). It is filed as biochemical. On the technique in general: Binding of GTPγS marks nucleotide exchange on a G protein.
Target sequence in this assay (P41145 whole entry, the tested form may be a part): as above
For series [4] the following is noted: mouse, microsomes.
Description: (§2) Microsomal stability was determined using mouse hepatic microsomes and LC/MS detections over time (Zhou et al., 2013, 22).
In series [5] the target is T2, δ-opioid receptor (Homo sapiens, UniProt P41143).
T2 construct: Psychoactive Drug Screening Program (UNC-CH)
Nature of the series: Radioligand binding displacement (Psychoactive Drug Screening Program). Particulars: initial profiling. The source says:
(§1) In some embodiments, the compounds disclosed herein are selective KOR binding ligands. As used herein, the term “selective binding ligands” refers to compounds, which display an increased selectivity for binding a particular KOR when compared to inhibiting other opioid receptors (such as μ- and δ-opioid receptors).

For series [6], the target named is T3, μ-opioid receptor (Homo sapiens, UniProt P35372).
T3 construct: Psychoactive Drug Screening Program (UNC-CH)
The description is as above. Particulars: initial profiling.
Description: as §1

Series [7] deals with adult male C57BL6/J mice. The following applies: mouse, in vivo.
Series [8] in a line: Microsomal stability, LC/MS detection over time. The following applies: mouse hepatic microsomes.
Description: as §2
Series [9] concerns adult male C57BL6/J mice. Kind of series: Open field test box mouse model for sedation. The following applies: 60 minutes.

Each structure is given as a SMILES string. Like-named read-outs stand apart in the source and are kept apart here.

The values below come from patent US20260242362A1, “PREPARATION OF 3,4,5-TRISUBSTITUTED TRIAZOLES AND METHODS OF USING THE SAME” (University of Florida Research Foundation, Incorporated, priority 2023, published 2026).

T3 sequence (P35372 whole entry): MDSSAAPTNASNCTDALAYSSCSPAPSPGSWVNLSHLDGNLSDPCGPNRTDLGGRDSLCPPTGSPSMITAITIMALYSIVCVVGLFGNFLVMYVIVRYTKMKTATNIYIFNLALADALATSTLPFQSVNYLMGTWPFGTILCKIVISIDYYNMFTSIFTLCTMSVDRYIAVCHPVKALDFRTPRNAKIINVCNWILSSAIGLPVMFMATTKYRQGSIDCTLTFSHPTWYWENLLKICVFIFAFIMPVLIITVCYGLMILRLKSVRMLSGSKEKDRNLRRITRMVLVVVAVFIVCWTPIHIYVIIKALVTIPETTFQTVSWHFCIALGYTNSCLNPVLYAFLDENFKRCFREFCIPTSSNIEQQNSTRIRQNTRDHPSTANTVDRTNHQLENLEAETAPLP
T2 sequence (P41143 whole entry): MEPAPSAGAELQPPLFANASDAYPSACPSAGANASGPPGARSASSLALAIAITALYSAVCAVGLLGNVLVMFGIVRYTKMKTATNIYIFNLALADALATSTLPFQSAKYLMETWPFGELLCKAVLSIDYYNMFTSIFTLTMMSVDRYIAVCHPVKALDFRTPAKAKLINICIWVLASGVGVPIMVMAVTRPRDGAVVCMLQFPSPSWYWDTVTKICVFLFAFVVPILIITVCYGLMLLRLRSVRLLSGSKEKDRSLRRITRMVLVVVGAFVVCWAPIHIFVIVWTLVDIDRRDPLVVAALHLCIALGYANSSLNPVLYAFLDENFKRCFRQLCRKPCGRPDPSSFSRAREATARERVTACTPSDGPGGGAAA

With `Cc1ccc(/C=C/c2nnc(-c3ccccn3)n2Cc2ccco2)cc1C(F)(F)F` (single isomer, unassigned) [Compound 40], the EC50 in series [1] is 7200 nM; in series [3] (3 parameter nonlinear regression, nc = did not converge), 1600 nM. Besides, the “β-arrestin2 Emax (% U60)” value in [1] was determined as 54 % U60. Besides, the “Bias (bias factor 10^ΔΔ(logτ/KA) Gprotein-Barr2)” value in [2] was 5. Also, the “KOR potency / activity in words (SAR commentary)” value in series [3] is “loss in potency”. Also, the “GTPγS Emax (% U60)” value in series [3] (relative to U69,593 = 100% Emax) is recorded as 97 % U60. Besides, in series [4], the “Microsomal Stability” value was 18 min.

As for `Cc1ccc(CCc2nnc(-c3ccccn3)n2Cc2cccs2)cc1C(F)(F)F` [Compound 5], in [1], the concentration giving a half-maximal response (EC50) came to 624 nM and the “β-arrestin2 Emax (% U60)” value came out at 110 % U60. Moreover, the “displacement of radioligand binding to δ-opioid receptor” value in series [5] is given as “less than 50%”. The “displacement of radioligand binding to μ-opioid receptor” value in [6] is on record as “less than 50%”. Moreover, the “sedation in open field test activity monitor” value in series [7] is listed as “does not induce sedation”.

As for `Cc1ccc(CSc2nnc(-c3ccccn3)n2Cc2ccco2)cc1C(F)(F)F` [Triazole 1.1], the “Microsomal Stability” value in [8] is given as 1.1 min. In addition, in [9], the “sedation in open field test activity monitor” value is “does not induce sedation” and the “time spent in the center of the open field box” value is given as “did not effect center time”.

The term EC50 denotes the concentration that produces a half-maximal response.
